Data from patent US20240417405A1, “Substituted Spiro Derivatives” (Janssen Pharmaceutica NV, priority 2021, published 2024).
pIC50: −log10 of the molar value. Where two headings read alike, the source gives them in different places.

How the values were obtained:
KO-52 cells = experiment: Proliferation assay, spheroid-like growth, KO-52 (MLL wildtype control cell line); type: cell-based, human; conditions: KO-52 control cells, 8 days, confluence as measure of spheroid size, read-out: spheroid assay_OneTime KO-52 IC50
Outline: (§1)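 IC50 derived from a variable-slope dose-response fit of percent confluence change, with DMSO-treated cells as high control and high-dose reference compound as low control. Spheroid-like growth of MOLM14 (200 cells/well) or KO-52 (300 cells/well) in ultra-low attachment plates, 8 days, 37° C, 5% CO2, DMSO normalised to 0.3%, imaged at day 8.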

[1] = target: T1, menin/MLL (terbium chelate-labeled menin, FITC-MBM1 peptide) (Homo sapiens, UniProt O00255, T541A); experiment: Menin/MLL homogenous time-resolved fluorescence (HTRF) assay; type: binding; conditions: 30 min incubation
T1 construct: Menin (a.a 1-610-6xhis tag)
T1 sequence (O00255 with tags, fused parts or gaps T541A): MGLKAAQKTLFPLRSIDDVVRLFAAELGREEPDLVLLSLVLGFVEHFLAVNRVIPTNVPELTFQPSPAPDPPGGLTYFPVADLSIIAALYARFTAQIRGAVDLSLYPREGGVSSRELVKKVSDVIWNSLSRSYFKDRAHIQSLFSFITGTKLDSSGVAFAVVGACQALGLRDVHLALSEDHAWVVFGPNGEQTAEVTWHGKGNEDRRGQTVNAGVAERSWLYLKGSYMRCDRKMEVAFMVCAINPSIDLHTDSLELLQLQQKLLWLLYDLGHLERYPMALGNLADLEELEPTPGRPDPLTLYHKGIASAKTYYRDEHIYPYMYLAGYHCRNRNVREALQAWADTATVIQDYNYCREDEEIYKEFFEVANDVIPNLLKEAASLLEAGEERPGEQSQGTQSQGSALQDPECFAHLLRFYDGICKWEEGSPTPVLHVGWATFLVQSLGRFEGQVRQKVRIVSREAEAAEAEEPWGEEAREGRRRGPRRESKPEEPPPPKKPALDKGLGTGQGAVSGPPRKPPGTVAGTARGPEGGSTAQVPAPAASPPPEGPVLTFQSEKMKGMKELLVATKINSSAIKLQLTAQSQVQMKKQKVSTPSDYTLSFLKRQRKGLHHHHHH
Outline: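 Compounds were preincubated 30 min at ambient temperature with 200 pM terbium-labeled menin (aa 1-610, His-tagged) in Tris pH 7.5 buffer with DTT and Pluronic, then 75 nM FITC-MBM1 peptide added for 15 min. HTRF ratio 520/490 nm gave % inhibition; IC50 from four-parameter fit, floor 0.1 nM.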

MOLM14 cells = experiment: Proliferation assay, spheroid-like growth, MOLM14 (MLL-AF9 rearranged); type: cell-based, human; conditions: 8 days, confluence as measure of spheroid size, read-out: spheroid assay_OneTime MOLM14 IC50
Outline: as §1

CC(C)C([C@H]1C[C@@H](Nc2ccnc(N)n2)C1)N1CC2(CCN(c3ncnnc3Oc3ccc(F)cc3-c3cncnc3C3CC3)C2)C1 (stereo partly drawn) [Compound 434]
pIC50 (KO-52 cells; Homo sapiens, 192 h): 5.70 | pIC50 [1]: 10.10 | pIC50 (MOLM14 cells; Homo sapiens, MOLM-14, 192 h): 8.54

COc1ncc(-c2cc(F)ccc2Oc2nncnc2N2CCC3(C2)CN(C(C(C)C)[C@H]2C[C@@H](NC(C)=O)C2)C3)c(C2CC2)n1 (stereo partly drawn) [Compound 500]
pIC50 (KO-52 cells; Homo sapiens, 192 h): 4.99 | pIC50 [1]: 9.52 | pIC50 (MOLM14 cells; Homo sapiens, MOLM-14, 192 h): 7.46

C[C@H]([C@H]1C[C@@H](NC(=O)OC(C)(C)C)C1)N1CC2(CCN(c3ncnnc3Oc3ccc(F)cc3-c3cncnc3C3CC3)C2)C1 [Compound 512a]
pIC50 (KO-52 cells): 6.51 | pIC50 [1]: 7.53 | pIC50 (MOLM14 cells): 7.40

C[C@@H]([C@H]1C[C@@H](NC(=O)OC(C)(C)C)C1)N1CC2(CCN(c3ncnnc3Oc3ccc(F)cc3-c3cncnc3C3CC3)C2)C1 [Compound 512b]
pIC50 (KO-52 cells): 5.24 | pIC50 [1]: 9.23 | pIC50 (MOLM14 cells): < 6.03
